Measured values from patent US4558058A, “Substituted 1,4-dihydropyridines and their use as medicaments” (Cassella Aktiengesellschaft, priority 1982, dated 1985).

Tested on: helical strips of pulmonary artery of guinea pigs
Assay: calcium-antagonistic action: inhibition of CaCl2-induced contraction of potassium-depolarised helical strips of pulmonary artery
Type: cell-based
Details: Cavia porcellus; guinea pig pulmonary artery strips, calcium-free Tyrode's solution, 40 mmol potassium, 0.5 mmol CaCl2; mean value from 4 to 6 strips; read-out: IC50 (concentration of the test substance which inhibits contraction by 50%)
Procedure: This entailed helical strips of pulmonary artery of guinea pigs being equilibrated in calcium-free Tyrode's solution and depolarised with 40 mmol of potassium. Addition of 0.5 mmol of CaCl2 then initiates contraction. The relaxant action of the test substance is determined by cumulative addition of concentrations increasing in steps of 1/2 log 10.

| Compound | IC50 [nM] |
| --- | --- |
| CC1=C(c2nnco2)C(c2cccc([N+](=O)[O-])c2)C(c2nnco2)=C(C)N1 [Example 3a, 1,4-Dihydro-2,6-dimethyl-3,5-di(1,3,4-oxadiazol-2-yl)-4-(3-nitrophenyl)pyridine] | 2 |
| CC1=C(C(=O)OC(C)C)C(c2cccc(Cl)c2Cl)C(c2nnco2)=C(C)N1 (stereo not shown) [Example 2z2, Isopropyl 1,4-dihydro-2,6-dimethyl-4-(2,3-dichlorophenyl)-5-(1,3,4-oxadiazol-2-yl)pyridine-3-carboxylate] | 0.2 |
| CCc1nnc(C2=C(C)NC(C)=C(C(=O)OCCOC)C2c2cccc([N+](=O)[O-])c2)o1 (stereo not shown) [Example 4k, 2-Methoxyethyl 1,4-dihydro-2,6-dimethyl-4-(3-nitrophenyl)-5-(2-ethyl-1,3,4-oxadiazol-5-yl)pyridine-3-carboxylate] | 1 |
| CC1=C(C(=O)OCCOC(C)C)C(c2cccc(Cl)c2Cl)C(c2nnc(C)o2)=C(C)N1 (stereo not shown) [Example 2z1, 2-Isopropoxyethyl 1,4-dihydro-2,6-dimethyl-4-(2,3-dichlorophenyl)-5-(2-methyl-1,3,4-oxadiazol-5-yl)pyridine-3-carboxylate] | 1.5 |
| COC(=O)C1=C(C)NC(C)=C(c2nnco2)C1c1cccc(Cl)c1Cl (stereo not shown) [Example 2b, Methyl 1,4-dihydro-2,6-dimethyl-4-(2,3-dichlorophenyl)-5-(1,3,4-oxadiazol-2-yl)pyridine-3-carboxylate] | 0.4 |
| COC(=O)C1=C(C)NC(C)=C(c2nc(Cc3ccccc3)no2)C1c1ccccc1[N+](=O)[O-] (stereo not shown) [Example 2t, Methyl 1,4-dihydro-2,6-dimethyl-4-(2-nitrophenyl)-5-(3-benzyl-1,2,4-oxadiazol-5-yl)pyridine-3-carboxylate] | 1 |
| COC(=O)C1=C(C)NC(C)=C(c2nc(Cc3ccccc3)no2)C1c1ccccc1Cl (stereo not shown) [Example 2w, Methyl 1,4-dihydro-2,6-dimethyl-4-(2-chlorophenyl)-5-(3-benzyl-1,2,4-oxadiazol-5-yl)pyridine-3-carboxylate] | 2.5 |
| CC1=C(C(=O)OCC(C)C)C(c2cccc([N+](=O)[O-])c2)C(c2nnco2)=C(C)N1 (stereo not shown) [Example 1z, Isobutyl 1,4-dihydro-2,6-dimethyl-4-(3-nitrophenyl)-5-(1,3,4-oxadiazol-2-yl)pyridine-3-carboxylate] | 0.15 |
| CCc1noc(C2=C(C)NC(C)=C(C(=O)OCCOC)C2c2cccc(Cl)c2Cl)n1 (stereo not shown) [Example 4b, 2-Methoxyethyl 1,4-dihydro-2,6-dimethyl-4-(2,3-dichlorophenyl)-5-(3-ethyl-1,2,4-oxadiazol-5-yl)pyridine-3-carboxylate] | 1.8 |
| CC1=C(C(=O)OC(C)C)C(c2cccc([N+](=O)[O-])c2)C(c2nnco2)=C(C)N1 (stereo not shown) [Example 2n, Isopropyl 1,4-dihydro-2,6-dimethyl-4-(3-nitrophenyl)-5-(1,3,4-oxadiazol-2-yl)pyridine-3-carboxylate] | 0.09 |
| COC(=O)C1=C(C)NC(C)=C(c2nc(Cc3ccccc3)no2)C1c1cccc([N+](=O)[O-])c1 (stereo not shown) [Example 2r, Methyl 1,4-dihydro-2,6-dimethyl-4-(3-nitrophenyl)-5-(3-benzyl-1,2,4-oxadiazol-5-yl)pyridine-3-carboxylate] | 0.5 |
| COC(=O)C1=C(C)NC(C)=C(c2nc(Cc3ccccc3)no2)C1c1cccc(Cl)c1Cl (stereo not shown) [Example 2s, Methyl 1,4-dihydro-2,6-dimethyl-4-(2,3-dichlorophenyl)-5-(3-benzyl-1,2,4-oxadiazol-5-yl)pyridine-3-carboxylate] | 0.7 |
| COCCOC(=O)C1=C(C)NC(C)=C(c2nc(Cc3ccccc3)no2)C1c1cccc([N+](=O)[O-])c1 (stereo not shown) [Example 2v, 2-Methoxyethyl 1,4-dihydro-2,6-dimethyl-4-(3-nitrophenyl)-5-(3-benzyl-1,2,4-oxadiazol-5-yl)pyridine-3-carboxylate] | 0.7 |
| COC(=O)C1=C(C)NC(C)=C(c2nnc(C)o2)C1c1cccc(Cl)c1Cl (stereo not shown) [Example 2e, Methyl 1,4-dihydro-2,6-dimethyl-4-(2,3-dichlorophenyl)-5-(5-methyl-1,3,4-oxadiazol-2-yl)pyridine-3-carboxylate] | 1.6 |
| COCCOC(=O)C1=C(C)NC(C)=C(c2nnco2)C1c1ccccc1[N+](=O)[O-] (stereo not shown) [Example 2o, 2-Methoxyethyl 1,4-dihydro-2,6-dimethyl-4-(2-nitrophenyl)-5-(1,3,4-oxadiazol-2-yl)pyridine-3-carboxylate] | 0.3 |
| CCOC(=O)c1sc(C2=C(C)NC(C)=C(C(=O)OCCOC)C2c2cccc([N+](=O)[O-])c2)nc1C (stereo not shown) [Example 5b, 2-Methoxyethyl 1,4-dihydro-2,6-dimethyl-4-(3-nitrophenyl)-5-(4-methyl-5-ethoxycarbonyl-2-thiazolyl)pyridine-3-carboxylate] | 1.6 |
| CCc1noc(C2=C(C)NC(C)=C(C(=O)OC)C2c2cccc(Cl)c2Cl)n1 (stereo not shown) [Example 4c, Methyl 1,4-dihydro-2,6-dimethyl-4-(2,3-dichlorophenyl)-5-(3-ethyl-1,2,4-oxadiazol-5-yl)pyridine-3-carboxylate] | 2.4 |
| CCc1nnc(C2=C(C)NC(C)=C(C(=O)OCCOC)C2c2cccc(Cl)c2Cl)o1 (stereo not shown) [Example 4m, 2-Methoxyethyl 1,4-dihydro-2,6-dimethyl-4-(2,3-dichlorophenyl)-5-(2-ethyl-1,3,4-oxadiazol-5-yl)pyridine-3-carboxylate] | 1.5 |

Same assay, conditions: guinea pig pulmonary artery strips, calcium-free Tyrode's solution, 40 mmol potassium, 0.5 mmol CaCl2; mean value from 4 to 6 strips; read-out: IC50 (concentration of the test substance which inhibits contraction by 50%)

| Compound | IC50 [nM] |
| --- | --- |
| 2-Methylethyl 1,4-dihydro-2,6-dimethyl-4-(3-cyanophenyl)-5-(3-methyl-1,2,4-oxadiazol-5-yl)pyridine-3-carboxylate [Example 1t] | 1.5 |
